We go through three molecules from US20170107179A1 (Tetraphase Pharmaceuticals, Inc., priority 2010, published 2017).

Series [1] concerns Crl:SKH1-hr hairless mouse. The series is described as follows: In vivo phototoxicity, Crl:SKH1-hr hairless mouse model. The following applies: hairless mice, intracutaneous 0.0375 or 0.375 mg/mouse, UVA 20 J/cm^2, observed up to 3 days. The method, then:
To estimate its potential to produce phototoxicity in vivo, Compound 102 was tested in validated in vivo and in vitro models of acute phototoxic activity at Charles River Laboratories (See Spielmann, H., et al., The second ECVAM workshop on phototoxicity testing. The report and recommendations of ECVAM workshop 42. Altern Lab Anim, 2000. 28(6): p. 777-814; and Peters, B. and H. G. Holzhutter, In vitro phototoxicity testing: development and validation of a new concentration response analysis software and biostatistical analyses related to the use of various prediction models. Altern Lab Anim, 2002. 30(4): p. 415-32, the entire teachings of both are incorporated herein by reference).
A vehicle control group was injected with normal saline. The pH of compound formulations was adjusted to 6.5±0.5 prior to injection. Immediately after administration, mice were lightly anesthetized via intraperitoneal injection of chloral hydrate in deionized water and then positioned on plastic tubing with laboratory tape. An aluminum foil mask with a single hole with a diameter of 1.3 cm (1.3 cm^2) was placed over the mid-dorsum injection site before UVA exposure. The distal administration site was shielded from UVA exposure. A UVA dose of no less than 20.0 and no more than 20.1 J/cm^2 at an intensity of 5±1 mW/cm^2 at the level of the mice was delivered during the exposure period. […]

The next series relates to E. coli DH10B EC971 LacZ. Description: MIC, E. coli DH10B recombinantly expressing control gene. As to conditions: E. coli DH10B, arabinose-induced, ampicillin in medium.
Series [2] deals with E. coli DH10B EC1153 Tet(X). Description: MIC, E. coli DH10B recombinantly expressing tetracycline-resistance gene. As to conditions: arabinose-induced, ampicillin in medium.
The test system of a further series is E. coli DH10B EC969 TetM. Described as above. The following applies: arabinose-induced, ampicillin in medium.
In a further series the test system is E. coli DH10B EC970 TetK. The description is as above. As to conditions: arabinose-induced, ampicillin in medium.
The subject of series [3] is E. coli DH10B EC1082 TetA. The description is as above. The following applies: arabinose-induced, ampicillin in medium.
Series [4] relates to E. coli DH10B EC1083 TetB. The description is as above. The following applies: arabinose-induced, ampicillin in medium.
The test system of another series is S. aureus SA101. It is filed as cell-based. The following applies: SA101, plates containing compound at 5× the MIC.
For another series, the system named is S. pneumoniae SP106. It is filed as cell-based. As to conditions: SP106, plates containing compound at 5× the MIC, 5% sheep blood.
In series [5] the test system is Gram-negative and Gram-positive organisms (clinical isolates). The series is described as follows: Broth microdilution MIC against clinical isolates (CLSI M7-A8), Table 9. The class given is cell-based.
The next series deals with M. catarrhalis (n = 50). The series is described as follows: Broth microdilution MIC, respiratory pathogens (Table 13).
Another series deals with Gram-positive pathogens. Description: Broth microdilution MIC, respiratory/skin pathogens (Table 12).
Where [6] appears, read: Staphylococcus aureus (MRSA PVL+), n=30.
Where [7] appears, read: Stenotrophomonas maltophilia, n=29.

Broadly, the MIC50 is the lowest concentration that inhibits either 50% of growth or 50% of the strains tested, depending on the study. A higher MIC50 goes with lower susceptibility. What is called MIC90 is the lowest concentration that inhibits either 90% of growth or 90% of the strains tested, depending on the study. A higher MIC90 goes with lower susceptibility.

With `CN(C)c1ccc(O)c2c1C[C@H]1C[C@H]3[C@H](N(C)C)C(O)=C(C(N)=O)C(=O)[C@@]3(O)C(O)=C1C2=O` [Minocycline, minocycline], in series [1], the “phototoxicity, skin reactions at site of UVA exposure” value is reported as “no skin reaction at either dose”. In addition, the “MIC EC971 LacZ” value in the series on E. coli DH10B EC971 LacZ is on record as 0.5. Also, the “MIC EC1153 Tet(X)” value in series [2] came to 4. For the same molecule, the “MIC EC969 TetM” value in the series on E. coli DH10B EC969 TetM is given as 64. The “MIC EC970 TetK” value in the series with E. coli DH10B EC970 TetK came to 1. For the same molecule, the “MIC EC1082 TetA” value in [3] is reported as 8. Also, in series [4], the “MIC EC1083 TetB” value was 16.

Consider `CO[C@H]1/C=C/O[C@@]2(C)Oc3c(C)c(O)c4c(O)c(c(/C=N/N5CCN(C)CC5)c(O)c4c3C2=O)NC(=O)/C(C)=C\C=C\[C@H](C)[C@H](O)[C@@H](C)[C@@H](O)[C@@H](C)[C@H](OC(C)=O)[C@@H]1C` [rifampin, reference compound], for which the spontaneous resistance frequency in the series on S. aureus SA101 was 2.0×10^−8; in the series on S. pneumoniae SP106, 2.88×10^−7.

With Gentamicin, the MIC50 entry in [5] (Acinetobacter lwoffii, n=29) was “≦0.25 μg/ml”; in series [5] (Enterobacter aerogenes, n=30), “≦0.25 μg/ml”; in series [5] (Enterobacter cloacae, n=29), 0.5 µg/mL; in [5] (Escherichia coli, n=40) it was 2 µg/mL; in [5] (Kiebsielia oxytoca, n=30), 0.5 µg/mL; in [5] (Klebsiella pneumonia, n=27), above 8 µg/mL. Besides, the MIC50 in series [5] (Morganella morganii, n=30) was 1 µg/mL; in series [5] (Proteus vulgaris, n=29), 1 µg/mL; in [5] (Salmonella species, n=30), 0.5 µg/mL; in series [5] (Serratia marcescens, n=30), 0.5 µg/mL; in series [5] (Shigella species, n=30), 1 µg/mL; in series [5] (setting [6]), 0.25 µg/mL. Moreover, the MIC50 was above 8 µg/mL in series [5] (setting [7]); 0.12 µg/mL against M. catarrhalis (n = 50); 0.25 µg/mL with Gram-positive pathogens (CoNS, MRCoNS (n = 26)); 0.12 µg/mL in the series on Gram-positive pathogens (CoNS, MSCoNS (n = 26)); above 8 µg/mL in the series with Gram-positive pathogens (E. faecalis, VAN NS (n = 48)); above 8 µg/mL against Gram-positive pathogens (E. faecalis, VAN S (n = 53)). Also, the MIC50 in the series on Gram-positive pathogens (E. faecium, VAN NS (n = 51)) is 8 µg/mL; against Gram-positive pathogens (E. faecium, VAN S (n = 49)), 8 µg/mL; in the series with Gram-positive pathogens (S. aureus, MSSA (n = 50)) it was 0.25 µg/mL; in the series on Gram-positive pathogens (S. saprophyticus (n = 36)), “≦0.06 mg/mL”. The MIC90 in [5] (Acinetobacter lwoffii, n=29) was 1 µg/mL; in [5] (Enterobacter aerogenes, n=30), 0.5 µg/mL; in series [5] (Enterobacter cloacae, n=29), above 8 µg/mL; in series [5] (Escherichia coli, n=40), above 8 µg/mL; in series [5] (Kiebsielia oxytoca, n=30), 2 µg/mL; in series [5] (Klebsiella pneumonia, n=27), above 8 µg/mL. Further, the MIC90 was above 8 µg/mL in series [5] (Morganella morganii, n=30); above 8 µg/mL in [5] (Proteus vulgaris, n=29); 1 µg/mL in series [5] (Salmonella species, n=30); 1 µg/mL in series [5] (Serratia marcescens, n=30); 1 µg/mL in series [5] (Shigella species, n=30); 0.5 µg/mL in series [5] (setting [6]). Besides, the MIC90 in [5] (setting [7]) was above 8 µg/mL; in the series with M. catarrhalis (n = 50), 0.12 µg/mL; with Gram-positive pathogens (CoNS, MRCoNS (n = 26)), above 8 µg/mL; against Gram-positive pathogens (CoNS, MSCoNS (n = 26)), 0.25 µg/mL; in the series on Gram-positive pathogens (E. faecalis, VAN NS (n = 48)) it was above 8 µg/mL; against Gram-positive pathogens (E. faecalis, VAN S (n = 53)), above 8 µg/mL. Moreover, the MIC90 in the series with Gram-positive pathogens (E. faecium, VAN NS (n = 51)) is above 8 µg/mL; in the series on Gram-positive pathogens (E. faecium, VAN S (n = 49)), above 8 µg/mL; against Gram-positive pathogens (S. aureus, MSSA (n = 50)) it was 0.5 µg/mL; in the series on Gram-positive pathogens (S. saprophyticus (n = 36)), “≦0.06 mg/mL”.
